Results: patent EP1925205A1, “Plant propagation material treatment nematicides” (priority 2006, dated 2008)
Where “and” joins values, the source holds several entries; their conditions need not be identical. Equal values may be shown once. Read-outs that look alike come from different tables or passages of the source.

Experiments:
Assay type in all cases: in vivo, Meloidogyne incognita
M. incognita [1] = conditions: for Efficacy (%): DS formulation, inoculated 14 days after sowing, galling 28 days after inoculation; for average rating (gall rating, score 0.1-7): tomato, untreated control 4.6
Meloidogyne spp. = assay: General statement of effectiveness against nematodes by plant propagation material treatment
M. incognita [2] = assay: Example 5: nematode control by tomato seed treatment, root galling (index adapted from Zeck); conditions: for Efficacy (%): tomato seeds, DS formulation, inoculated 14 days after sowing, galling 28 days after inoculation
M. incognita [3] = conditions: for Efficacy (%): DS formulation, inoculated 14 days after sowing, galling 28 days after inoculation; for average rating (gall rating, score 0.1-7): tomato, untreated control 4.1
M. incognita [4] = assay: Example 6: nematode control by cotton seed treatment, root galling (index adapted from Zeck); conditions: for Efficacy (%): cotton seeds, DS formulation, inoculated 14 days after sowing, galling 28 days after inoculation; for average rating (gall rating, score 0.1-7): cotton, untreated control 2.0
M. incognita [5] = assay: Example 1: nematode control by tomato seed treatment, root galling (index adapted from Zeck), two exposure timings; conditions: for Efficacy (%) at the two-week exposure / Efficacy (%) at the four-week exposure: tomato seeds, DS formulation, galling 28 days after inoculation; for Efficacy (%) at the two-week exposure: inoculated 14 days after sowing, 6000 eggs; for Efficacy (%) at the four-week exposure: inoculated 28 days after sowing, 9000 eggs; for average rating (gall rating, score 0.1-7): tomato
M. incognita [6] = assay: Example 4: nematode control by tomato seed treatment, root galling (index adapted from Zeck); conditions: for Efficacy (%) / germination of treated seeds: tomato seeds; for Efficacy (%): Methiocarb FS500, Thiodicarb DS, inoculated 14 days after sowing, galling 28 days after inoculation; for germination of treated seeds: FS500 formulation; for average rating (gall rating, score 0.1-7): tomato, untreated control 4.3
[7] = tomato seeds, 0.03 mg a.i./seed
[8] = tomato seeds, 0.01 mg a.i./seed
[9] = 1 mg a.i./seed, inoculated at 14 days after sowing, untreated control 3.5
[10] = 1 mg a.i./seed, inoculated at 28 days after sowing, untreated control 2.9

SMILES: CNC(=O)O/N=C/C(C)(C)SC [Aldicarb]
- Efficacy (%) (M. incognita [1]; [7]): 5.8%
- Efficacy (%) (M. incognita [1]; tomato seeds, 0.1 mg a.i./seed): 5.8%
- Efficacy (%) (M. incognita [1]; tomato seeds, 0.3 mg a.i./seed): 11.2%
- Efficacy (%) (M. incognita [1]; tomato seeds, 1 mg a.i./seed): 16.7%
- average rating (gall rating, score 0.1-7) (M. incognita [1]; 1 mg /seed): 3.8
- effective against Meloidogyne spp., for example, Meloidogyne incognita (Meloidogyne spp.): effective

SMILES: CCCCNC(=O)n1c(NC(=O)OC)nc2ccccc21 [Benomyl]
- Efficacy (%) (M. incognita [2]; 0.1 mg a.i./seed): 0%
- Efficacy (%) (M. incognita [2]; 0.3 mg a.i./seed): 2.0%
- Efficacy (%) (M. incognita [2]; 1 mg a.i./seed): 0%
- average rating (gall rating, score 0.1-7) (M. incognita [2]; tomato, 1 mg a.i./seed, untreated control 4.2): The untreated control plants have an average rating of 4.2. Benomyl at 1 mg a.i. /seed is also rated at 4.2.

SMILES: CCOP(=O)(SC(C)CC)SC(C)CC (stereo not drawn) [Cadusafos]
- germination of treated seeds (M. incognita [3]; tomato seeds, 1 mg a.i./seed): did not germinate
- Efficacy (%) (M. incognita [3]; [8]): 0%
- Efficacy (%) (M. incognita [3]; [7]): 0%
- Efficacy (%) (M. incognita [3]; tomato seeds, 0.1 mg a.i./seed): 2.0%
- Efficacy (%) (M. incognita [3]; tomato seeds, 0.3 mg a.i./seed): 14.3%
- average rating (gall rating, score 0.1-7) (M. incognita [3]; 0.3 mg /seed): 3.5
- Efficacy (%) (M. incognita [4]; 0.01 mg a.i./seed): 0%
- Efficacy (%) (M. incognita [4]; 0.03 mg a.i./seed): 0%
- Efficacy (%) (M. incognita [4]; 0.1 mg a.i./seed): 8.3%
- Efficacy (%) (M. incognita [4]; 0.3 mg a.i./seed): 77.5%
- Efficacy (%) (M. incognita [4]; 1 mg a.i./seed): 86.7%
- average rating (gall rating, score 0.1-7) (M. incognita [4]; 0.3 mg /seed): 0.5
- average rating (gall rating, score 0.1-7) (M. incognita [4]; 1 mg a.i./seed): 0.3
- effective against Meloidogyne spp., for example, Meloidogyne incognita (Meloidogyne spp.): effective

SMILES: CCOP(=S)(OCC)Oc1nc(Cl)c(Cl)cc1Cl [Chlorpyrifos]
- Efficacy (%) (M. incognita [3]; [8]): 0%
- Efficacy (%) (M. incognita [3]; [7]): 0%
- Efficacy (%) (M. incognita [3]; tomato seeds, 0.1 mg a.i./seed): 0%
- Efficacy (%) (M. incognita [3]; tomato seeds, 0.3 mg a.i./seed): 0%
- Efficacy (%) (M. incognita [3]; tomato seeds, 1 mg a.i./seed): 0%
- average rating (gall rating, score 0.1-7) (M. incognita [3]; 1 mg /seed): 4.3

SMILES: CCOP(=S)(OCC)Oc1cc(C)nc(C(C)C)n1 [Diazinon]
- Efficacy (%) (M. incognita [3]; [8]): 0%
- Efficacy (%) (M. incognita [3]; [7]): 0%
- Efficacy (%) (M. incognita [3]; tomato seeds, 0.1 mg a.i./seed): 0%
- Efficacy (%) (M. incognita [3]; tomato seeds, 0.3 mg a.i./seed): 0%
- Efficacy (%) (M. incognita [3]; tomato seeds, 1 mg a.i./seed): 0%
- average rating (gall rating, score 0.1-7) (M. incognita [3]; 1 mg /seed): 4.2

SMILES: CCOP(=S)(OCC)Oc1ccc(Cl)cc1Cl [Dichlofenthion]
- Efficacy (%) (M. incognita [3]; [8]): 0%
- Efficacy (%) (M. incognita [3]; [7]): 0%
- Efficacy (%) (M. incognita [3]; tomato seeds, 0.1 mg a.i./seed): 0%
- Efficacy (%) (M. incognita [3]; tomato seeds, 0.3 mg a.i./seed): 0%
- Efficacy (%) (M. incognita [3]; tomato seeds, 1 mg a.i./seed): 0%
- average rating (gall rating, score 0.1-7) (M. incognita [3]; 1 mg /seed): 4.7

SMILES: CNC(=O)CSP(=S)(OC)OC [Dimethoate]
- Efficacy (%) (M. incognita [3]; [8]): 0%
- Efficacy (%) (M. incognita [3]; [7]): 2.0%
- Efficacy (%) (M. incognita [3]; tomato seeds, 0.1 mg a.i./seed): 2.0%
- Efficacy (%) (M. incognita [3]; tomato seeds, 0.3 mg a.i./seed): 0%
- Efficacy (%) (M. incognita [3]; tomato seeds, 1 mg a.i./seed): 0%
- average rating (gall rating, score 0.1-7) (M. incognita [3]; 1 mg /seed): 4.3

SMILES: CCCSP(=O)(OCC)SCCC [Ethoprofos, Ethoprophos]
- germination of treated seeds (M. incognita [1]; tomato seeds, 1 mg a.i./seed): did not germinate
- Efficacy (%) (M. incognita [1]; [7]): 4.0%
- Efficacy (%) (M. incognita [1]; tomato seeds, 0.1 mg a.i./seed): 2.2%
- Efficacy (%) (M. incognita [1]; tomato seeds, 0.3 mg a.i./seed): 2.2%
- average rating (gall rating, score 0.1-7) (M. incognita [1]; 0.3 mg /seed): 4.5

SMILES: CCOP(=S)(OCC)Oc1ccc([S+](C)[O-])cc1 (stereo not drawn) [Fensulfothion]
- Efficacy (%) (M. incognita [3]; [8]): 0%
- Efficacy (%) (M. incognita [3]; [7]): 2.0%
- Efficacy (%) (M. incognita [3]; tomato seeds, 0.1 mg a.i./seed): 0%
- Efficacy (%) (M. incognita [3]; tomato seeds, 0.3 mg a.i./seed): 0%
- Efficacy (%) (M. incognita [3]; tomato seeds, 1 mg a.i./seed): 20.4%
- average rating (gall rating, score 0.1-7) (M. incognita [3]; 1 mg /seed): 3.3
- effective against Meloidogyne spp., for example, Meloidogyne incognita (Meloidogyne spp.): effective

SMILES: CCOP(=O)(SC(C)CC)N1CCSC1=O (stereo not drawn) [Fosthiazate]
- Efficacy (%) at the two-week exposure (M. incognita [5]; 0.03 mg a.i./seed): 0%
- Efficacy (%) at the four-week exposure (M. incognita [5]; 0.03 mg a.i./seed): 0%
- Efficacy (%) at the two-week exposure (M. incognita [5]; 0.1 mg a.i./seed): 40%
- Efficacy (%) at the four-week exposure (M. incognita [5]; 0.1 mg a.i./seed): 0%
- Efficacy (%) at the two-week exposure (M. incognita [5]; 0.3 mg a.i./seed): 28.6%
- Efficacy (%) at the four-week exposure (M. incognita [5]; 0.3 mg a.i./seed): 10.9%
- Efficacy (%) at the two-week exposure (M. incognita [5]; 1 mg a.i./seed): 59% and 59.4%
- Efficacy (%) at the four-week exposure (M. incognita [5]; 1 mg a.i./seed): 40%
- average rating (gall rating, score 0.1-7) (M. incognita [5]; [9]): 1.4
- average rating (gall rating, score 0.1-7) (M. incognita [5]; [10]): 1.8
- effective against Meloidogyne spp., for example, Meloidogyne incognita (Meloidogyne spp.): effective

SMILES: CCOP(=S)(OCC)Oc1nc(Cl)n(C(C)C)n1 [Isazofos]
- Efficacy (%) (M. incognita [1]; [7]): 4.0%
- Efficacy (%) (M. incognita [1]; tomato seeds, 0.1 mg a.i./seed): 2.2%
- Efficacy (%) (M. incognita [1]; tomato seeds, 0.3 mg a.i./seed): 34.8%
- Efficacy (%) (M. incognita [1]; tomato seeds, 1 mg a.i./seed): 87.0%
- average rating (gall rating, score 0.1-7) (M. incognita [1]; 1 mg /seed): 0.6
- effective against Meloidogyne spp., for example, Meloidogyne incognita (Meloidogyne spp.): effective

SMILES: CNC(=O)Oc1cc(C)c(SC)c(C)c1 [Methiocarb]
- Efficacy (%) (M. incognita [6]; 0.01 mg a.i./seed): 3.8%
- Efficacy (%) (M. incognita [6]; 0.03 mg a.i./seed): 3.8%
- Efficacy (%) (M. incognita [6]; 0.1 mg a.i./seed): 1.9%
- germination of treated seeds (M. incognita [6]; 0.3 mg /seed): only 1 seed out of 6 germinated
- Efficacy (%) (M. incognita [6]; 0.3 mg a.i./seed): 0%
- germination of treated seeds (M. incognita [6]; 1 mg a.i./seed): did not germinate
- average rating (gall rating, score 0.1-7) (M. incognita [6]; 0.1 mg /seed): 4.3
- average rating (gall rating, score 0.1-7) (M. incognita [6]; 0.3 mg /seed, only one germinated plant): 4.5

SMILES: CNC(=O)O/N=C(\SC)C(=O)N(C)C [Oxamyl]
- Efficacy (%) at the two-week exposure (M. incognita [5]; 0.03 mg a.i./seed): 7.1%
- Efficacy (%) at the four-week exposure (M. incognita [5]; 0.03 mg a.i./seed): 0%
- Efficacy (%) at the two-week exposure (M. incognita [5]; 0.1 mg a.i./seed): 0%
- Efficacy (%) at the four-week exposure (M. incognita [5]; 0.1 mg a.i./seed): 2.9%
- Efficacy (%) at the two-week exposure (M. incognita [5]; 0.3 mg a.i./seed): 0%
- Efficacy (%) at the four-week exposure (M. incognita [5]; 0.3 mg a.i./seed): 0%
- Efficacy (%) at the two-week exposure (M. incognita [5]; 1 mg a.i./seed): 0%
- Efficacy (%) at the four-week exposure (M. incognita [5]; 1 mg a.i./seed): 4.5%
- average rating (gall rating, score 0.1-7) (M. incognita [5]; [9]): 3.5
- average rating (gall rating, score 0.1-7) (M. incognita [5]; [10]): 2.8

SMILES: CCOP(=S)(OCC)SCSCC [Phorate]
- Efficacy (%) (M. incognita [1]; [7]): 22.1%
- Efficacy (%) (M. incognita [1]; tomato seeds, 0.1 mg a.i./seed): 2.2%
- Efficacy (%) (M. incognita [1]; tomato seeds, 0.3 mg a.i./seed): 2.2%
- Efficacy (%) (M. incognita [1]; tomato seeds, 1 mg a.i./seed): 5.8%
- average rating (gall rating, score 0.1-7) (M. incognita [1]; 1 mg /seed): 4.3

SMILES: CCN(CC)C(=O)C(Cl)=C(C)OP(=O)(OC)OC [Phosphamidon]
- Efficacy (%) (M. incognita [3]; [8]): 0%
- Efficacy (%) (M. incognita [3]; [7]): 2.0%
- Efficacy (%) (M. incognita [3]; tomato seeds, 0.1 mg a.i./seed): 0%
- Efficacy (%) (M. incognita [3]; tomato seeds, 0.3 mg a.i./seed): 0%
- Efficacy (%) (M. incognita [3]; tomato seeds, 1 mg a.i./seed): 0%
- average rating (gall rating, score 0.1-7) (M. incognita [3]; 1 mg /seed): 4.1

SMILES: CCOP(=S)(OCC)SCSC(C)(C)C [Terbufos]
- Efficacy (%) (M. incognita [3]; [8]): 0%
- Efficacy (%) (M. incognita [3]; [7]): 0%
- Efficacy (%) (M. incognita [3]; tomato seeds, 0.1 mg a.i./seed): 0%
- Efficacy (%) (M. incognita [3]; tomato seeds, 0.3 mg a.i./seed): 0%
- Efficacy (%) (M. incognita [3]; tomato seeds, 1 mg a.i./seed): 0%
- average rating (gall rating, score 0.1-7) (M. incognita [3]; 1 mg /seed): 4.1

SMILES: CS/C(C)=N\OC(=O)N(C)SN(C)C(=O)O/N=C(\C)SC [Thiodicarb]
- Efficacy (%) (M. incognita [6]; 0.03 mg a.i./seed): 0%
- Efficacy (%) (M. incognita [6]; 0.1 mg a.i./seed): 0%
- Efficacy (%) (M. incognita [6]; 0.3 mg a.i./seed): 0%
- Efficacy (%) (M. incognita [6]; 1 mg a.i./seed): 1.9%
- average rating (gall rating, score 0.1-7) (M. incognita [6]; 1 mg a.i./seed): 4.3
